Assay results published in article PMC6344480 (Nature Communications, 2019).

Target: T1, AsfvLIG (African swine fever virus BA71V, UniProt P35970)
T1 construct: gene LIG
Conditions: non-catalytic AsfvLIG:DNA complex; no Mg2+; bound in the adenylation domain near catalytic Lys151

T1 sequence (P35970 whole entry, looked up): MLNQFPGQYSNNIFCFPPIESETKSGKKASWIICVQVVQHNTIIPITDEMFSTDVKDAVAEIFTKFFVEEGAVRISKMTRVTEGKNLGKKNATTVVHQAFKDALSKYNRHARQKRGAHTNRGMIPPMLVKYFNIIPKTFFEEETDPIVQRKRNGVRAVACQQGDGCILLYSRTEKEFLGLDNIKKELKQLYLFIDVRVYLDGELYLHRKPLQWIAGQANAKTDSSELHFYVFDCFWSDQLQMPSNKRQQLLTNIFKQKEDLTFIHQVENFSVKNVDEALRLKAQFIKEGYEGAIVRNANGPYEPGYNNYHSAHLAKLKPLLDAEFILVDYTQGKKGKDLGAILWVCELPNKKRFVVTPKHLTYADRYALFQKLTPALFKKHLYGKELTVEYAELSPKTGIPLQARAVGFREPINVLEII

Nc1ncnc2c1ncn2[C@@H]1O[C@H](COP(=O)(O)OP(=O)(O)OP(=O)(O)O)[C@@H](O)[C@H]1O [ATP]
X-ray crystal structure (Se-SAD): the ATP is bound by the AD domain and stabilized by various interactions
